Source: patent US20240277799A1, “Translational Activators, Including Methods of Discovery and Uses Thereof” (The Board of Trustees of the Leland Stanford Junior …, priority 2023, published 2024)

What was measured:
[1] = system: A459 cells transfected with siRNA targeting RPL11 (siRPL11); test: global protein synthesis in cells with insufficient global protein synthesis (siRPL11); format: cell-based; settings: FIGS. 4A-4D; for concentrations that increase protein synthesis, fold lower as compared to erythromycin: siRPL11 cells
Description: FIGS. 2A-2D provide data and a schematic of an example of a screening method to discover and/or identify translational activators. In this example, cells with decreased global protein synthesis via small interfering RNA (siRNA) knockdown of an RP are cultured within a multi-well format. Each well of cultured cells is contacted with a compound and then examined for global protein synthesis. Compounds that increased global protein synthesis were considered a putative translational activator for further examination.
To begin, cells are prepared (FIG. 2B). In some embodiments, cells having decreased global protein translation are cultured. It should be understood that any cells can be assessed and it is not required that the cells have decreased global protein translation, but cells with decreased global protein translation may improve identification of translational activators. In some embodiments, the cells are known to have a wild-type p53 sequence, which can reduce cofounding factors. Culturing of cells can be in plates, tubes, flasks, and/or any other appropriate container. High throughput methods can use multi-well plates (e.g., 96-well, 384-well, 1536-well, etc.) or any other means for dividing a cell culture into multiple populations.
In some embodiments, the cells that are cultured are manipulated to decrease global translation. In some embodiments, cells are manipulated by reducing expression of or inhibiting functionality of a ribosomal subunit. Examples of ribosomal subunits that can be targeted include (but are not limited to) RPL5, RPL11, RPS6, and RPS19, each of which are involved in various ribosomopathies. One method to reduce ribosomal subunit expression is knockdown via antisense and/or RNA interference (RNAi) technology. […] The example method within FIG. 2B utilizes reverse transfection in which double-stranded siRNA complexes are preformed and transfected into the cells, which are then cultured.
Upon preparing the cells, the cells are then treated with compounds (FIG. 2C). In some embodiments, cultured cells are contacted with a compound to assess their effect on global protein translation. […] If using a pooling strategy, hits can be further assessed to delineate which compound (or combination of compounds) yield the beneficial effect. Compounds can be assessed at a single concentration, or multiple concentrations. […] For high-throughput assessments, multiple cell cultures (e.g., multiple wells) can be assessed concurrently, each cell culture provided with the same conditions except for the compound (or concentration thereof) utilized to contact the cells of the culture.
After a period of incubating the cell culture with a compound, global protein production can be assessed (FIG. 2D). Any readout for measuring protein synthesis can be utilized. […]

[2] = system: A459 cells transfected with a control siRNA (siCTRL); test: global protein synthesis in control cells (siCTRL); format: cell-based; settings: siCTRL cells with normal global synthesis; FIGS. 4A-4D
Description: FIGS. 2A-2D provide data and a schematic of an example of a screening method to discover and/or identify translational activators. In this example, cells with decreased global protein synthesis via small interfering RNA (siRNA) knockdown of an RP are cultured within a multi-well format. Each well of cultured cells is contacted with a compound and then examined for global protein synthesis. Compounds that increased global protein synthesis were considered a putative translational activator for further examination. To begin, cells are prepared (FIG. 2B). In some embodiments, cells having decreased global protein translation are cultured. It should be understood that any cells can be assessed and it is not required that the cells have decreased global protein translation, but cells with decreased global protein translation may improve identification of translational activators. […] If using a pooling strategy, hits can be further assessed to delineate which compound (or combination of compounds) yield the beneficial effect. Compounds can be assessed at a single concentration, or multiple concentrations. […] For high-throughput assessments, multiple cell cultures (e.g., multiple wells) can be assessed concurrently, each cell culture provided with the same conditions except for the compound (or concentration thereof) utilized to contact the cells of the culture. […]

[3] = cellular toxicity, relative total cell count against concentration; settings: at concentrations that improve protein synthesis; FIG. 5
Description: Specifically, FIG. 5 illustrates relative total cell count is plotted against the concentration provided.

SMILES | concentrations that increase protein synthesis, fold lower as compared to erythromycin [1] | increase of protein synthesis in control cells [2] | ability to increase protein synthesis ([1]; siRPL11 cells having insufficient global protein synthesis) | cellular toxicity (relative total cell count) [3]
CC[C@H]1OC(=O)[C@H](C)[C@@H](O[C@H]2C[C@@](C)(OC)[C@@H](O)[C@H](C)O2)[C@H](C)[C@@H](O[C@@H]2O[C@H](C)C[C@H](N(C)C)[C@H]2O)[C@](C)(O)C[C@@H](C)CN(C)[C@H](C)[C@@H](O)[C@]1(C)O [azithromycin] | 10 fold | increased protein synthesis in control cells |  | 
CC[C@H]1OC(=O)[C@H](C)[C@@H](O[C@H]2C[C@@](C)(OC)[C@@H](O)[C@H](C)O2)[C@H](C)[C@@H](O[C@@H]2O[C@H](C)C[C@H](N(C)C)[C@H]2O)[C@](C)(O)C[C@@H](C)C(=O)[C@H](C)[C@@H](O)[C@]1(C)O [erythromycin] |  |  | increased protein synthesis at high concentrations | 
CC[C@H]1OC(=O)[C@@](C)(F)C(=O)[C@H](C)[C@@H](O[C@@H]2O[C@H](C)C[C@H](N(C)C)[C@H]2O)[C@](C)(OC)C[C@@H](C)C(=O)[C@H](C)[C@H]2N(CCCCn3cc(-c4cccc(N)c4)nn3)C(=O)O[C@]12C [solithromycin] | 10 fold |  |  | little to no toxicity
CC[C@H]1OC(=O)[C@H](C)C(=O)[C@H](C)[C@@H](O[C@@H]2O[C@H](C)C[C@H](N(C)C)[C@H]2O)[C@](C)(OC)C[C@@H](C)C(=O)[C@H](C)[C@H]2N(CCCCn3cnc(-c4cccnc4)c3)C(=O)O[C@]12C [telithromycin] | 10 fold |  |  | 
